Read-outs that look alike come from different tables or passages of the source.
How the values were obtained:
Assay type in all cases: biochemical
ENPP1 [1] = molecular target: T1, ENPP1 (Homo sapiens, UniProt P22413); experiment: ENPP1 enzyme assay with cGAMP substrate (AMP-Glo); set-up: purchased R&D Systems; conditions: read-out: cGAMP: % Inhibition at 1 µM
T1 sequence (P22413 1-925): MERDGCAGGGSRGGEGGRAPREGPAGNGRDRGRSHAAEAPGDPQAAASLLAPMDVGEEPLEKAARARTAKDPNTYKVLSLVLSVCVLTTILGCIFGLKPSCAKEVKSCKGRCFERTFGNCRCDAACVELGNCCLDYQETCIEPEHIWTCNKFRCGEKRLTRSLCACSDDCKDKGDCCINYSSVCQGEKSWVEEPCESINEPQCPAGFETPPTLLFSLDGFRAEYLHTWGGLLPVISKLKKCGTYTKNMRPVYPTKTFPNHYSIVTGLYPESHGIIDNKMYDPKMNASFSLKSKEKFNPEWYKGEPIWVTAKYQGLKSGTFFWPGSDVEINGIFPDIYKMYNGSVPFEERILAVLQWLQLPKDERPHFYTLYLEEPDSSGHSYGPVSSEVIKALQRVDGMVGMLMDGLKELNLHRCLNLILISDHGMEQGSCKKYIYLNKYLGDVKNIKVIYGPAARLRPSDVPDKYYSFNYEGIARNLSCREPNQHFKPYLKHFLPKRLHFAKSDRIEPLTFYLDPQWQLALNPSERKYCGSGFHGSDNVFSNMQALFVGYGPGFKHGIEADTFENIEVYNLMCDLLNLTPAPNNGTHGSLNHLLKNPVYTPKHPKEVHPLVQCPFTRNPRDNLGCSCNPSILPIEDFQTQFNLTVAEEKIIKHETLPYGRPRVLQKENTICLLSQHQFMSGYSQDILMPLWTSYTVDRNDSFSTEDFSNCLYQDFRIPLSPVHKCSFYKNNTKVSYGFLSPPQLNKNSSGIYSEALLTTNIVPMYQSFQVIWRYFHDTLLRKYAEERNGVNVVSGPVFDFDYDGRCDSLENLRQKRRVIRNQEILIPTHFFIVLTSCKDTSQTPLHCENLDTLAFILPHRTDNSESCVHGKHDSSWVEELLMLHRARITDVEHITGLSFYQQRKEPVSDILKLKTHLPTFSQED
Description: Example B1: ENPP1 Enzyme Assay With cGAMP Substrate
Ectonucleotide pyrophosphatase/phosphodiesterase 1 (ENPP-1) is a transmembrane glycoprotein that hydrolyzes nucleotides and nucleotide derivatives with the formation of nucleoside-5’-monophosphates. […] The 5’-AMP formed from the reaction is detected using the AMP-Glo® Kit (Promega). The assay kit contains two reagents. The first reagent terminates the enzymatic reaction, removes ATP (using adenylyl cyclase), and converts 5’-AMP produced into ADP (using polyphosphate: AMP phosphotransferase). The second reagent converts ADP to ATP (using adenylate kinase) and generates light from ATP using the luciferin/luciferase reaction.
Different concentrations of ENPP1 inhibitors are pre-incubated with 5 ng/well of human ENPP-1 enzyme (R&D Systems) for 15 minutes at 37° C. The reaction is initiated by adding 20 µM 2’3’-cGAMP and incubating for 30 minutes at 37° C. The final assay reaction mixture contains a buffer of 50 mM Tris pH 8.0, 250 mM NaCl, 0.5 mM CaCl2, 1 µM ZnCl2 and 1% DMSO. At the end of the incubation, the reaction is stopped by adding 12 µl of AMP-Glo reagent-1 and mixing the reaction uniformly for 5 minutes, followed by incubation at room temperature for one hour. Then 25 µl of AMP Glo reagent-2 is added to the reaction, mixed uniformly with a pipette, and incubated at room temperature for one hour to convert the ADP formed from reagent-1 to ATP and light. The generated light is measured in a Perkin Elmer Victor® instrument.
The IC50 values for percent inhibition versus compound concentration are determined by fitting the inhibition curves using a four-parameter variable slope model in GraphPad Prism® software. Ki values are derived from the IC50 values using the Cheng-Prusoff equation: […]

ENPP1 [2] = molecular target: T1, ENPP1; experiment: Indirect quantitation of 2',3'-cGAMP hydrolysis (AMP-Glo Assay kit); conditions: cGAMP substrate; Ki from IC50 by Cheng-Prusoff; read-out: ENPP1 Inhibition -cGAMP: Ki
ENPP1 [3] = molecular target: T1, ENPP1; experiment: ENPP1 enzyme assay with AMP-pNP substrate (hydrolysis of ATP analog); conditions: AMP-pNP substrate (ATP analog); Ki from IC50 by Cheng-Prusoff; read-out: ENPP1 Inhibition _AMP-pNP: Ki
Summary of the method: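 Reactions ran 20 min at 37 °C, pH 8.5 Tris buffer with NaCl, CaCl2, ZnCl2, using 300 µM AMP-pNP and 60 ng/well recombinant human ENPP1; inhibitor range 10 µM–30 pM, duplicates.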

ENPP1 [4] = molecular target: T1, ENPP1; experiment: Substrate selectivity ratio, inhibition of cGAMP hydrolysis versus ATP hydrolysis; conditions: ratio Ki AMP-pNP / Ki cGAMP
Procedure: The selectivity ratios for inhibition of cGAMP hydrolysis versus ATP hydrolysis were then calculated as follows: […]

| SMILES | Ki (ENPP1 [2]) [nM] | inhibition at 1 µM (ENPP1 [1]; 1 µM compound, cGAMP substrate) [%] | Ki (ENPP1 [3]) [nM] | Substrate Selectivity: Ki_AMP-pNP/Ki_cGAMP (ENPP1 [4]) | inhibition at 1 µM (ENPP1 [1]) [%] |
| --- | --- | --- | --- | --- | --- |
| NS(=O)(=O)NCCC1CCN(c2ccnc(NC(=O)c3cccnc3)n2)CC1 [Example 7, N-(4-(4-(2-(sulfamoylamino)ethyl)piperidin-1-yl)pyrimidin-2-yl)nicotinamide] | > 1000 | – | – | – | < 25 |
| NS(=O)(=O)NCCC1CCN(c2ncnc3c2cnn3-c2ccccc2)CC1 [Example 26, N-(2-(1-(1-phenyl-1H-pyrazolo[3,4-d]pyrimidin-4-yl)piperidin-4-yl)ethyl)sulfamide] | > 1000 | – | – | – | < 25 |
| COc1cc(N)c(C(=O)N2CCC(CCNS(N)(=O)=O)CC2)cc1OC [Example 46, N-(2-(1-(2-amino-4,5-dimethoxybenzoyl)piperidin-4-yl)ethyl)sulfamide] | > 1000 | < 25 | – | – | – |
| NS(=O)(=O)NCCC1CCN(c2ccnc(Nc3cccnc3)n2)CC1 [Example 12, N-(2-(1-(2-(pyridin-3-ylamino)pyrimidin-4-yl)piperidin-4-yl)ethyl)sulfamide] | > 1000 | – | – | – | < 25 |
| COc1ccc(C(=O)N2CCC(CCNS(N)(=O)=O)CC2)cc1 [Example 49, N-(2-(1-(4-methoxybenzoyl)piperidin-4-yl)ethyl)sulfamide] | > 1000 | 25 to 50 | – | – | – |
| COc1cc2ccnc(N3CCC(CCNS(N)(=O)=O)CC3)c2cc1OC [Example 21, N-{2-[1-(6,7-dimethoxyisoquinolin-1-yl)piperidin-4-yl]ethyl}aminosulfonamide] | > 1000 | – | – | – | 25 to 50 |
| NS(=O)(=O)NCCC1CCN(c2ccnc(-c3cccnc3)n2)CC1 [Example 14, N-(2-(1-(2-(pyridin-3-yl)pyrimidin-4-yl)piperidin-4-yl)ethyl)sulfamide] | > 1000 | < 25 | – | – | – |
| COc1cc2ncc(C)c(-c3ccc4c(c3)CN(S(N)(=O)=O)CC4)c2cc1OC [Example 60, 7-(6,7-dimethoxy-3-methylquinolin-4-yl)-3,4-dihydroisoquinoline-2(1H)-sulfonamide] | < 100 | – | < 100 | 16.7 | – |
| COc1ccc2c(Oc3ccc(N)cc3)ccnc2c1 [Example 342, 4-((7-methoxyquinolin-4-yl)oxy)aniline] | 100 to 1000 | – | > 1000 | >64.9 | – |
| COc1cc2ncc(C#N)c(N3CCC4(CC3)CCN(S(N)(=O)=O)C4)c2cc1OC [Example 64, 8-(3-cyano-6,7-dimethoxyquinolin-4-yl)-2,8-diazaspiro [4.5] decane-2-sulfonamide] | < 100 | – | < 100 | 11.9 | – |

More lines, main results first:

| Ki (ENPP1 [2]) [nM] | inhibition at 1 µM (ENPP1 [1]; 1 µM compound, cGAMP substrate) [%] | Ki (ENPP1 [3]) [nM] | Substrate Selectivity: Ki_AMP-pNP/Ki_cGAMP (ENPP1 [4]) | SMILES | inhibition at 1 µM (ENPP1 [1]) [%] |
| --- | --- | --- | --- | --- | --- |
| < 100 | – | 100 to 1000 | 6.9 | COc1cc2ncnc(N3CCC(CCNS(N)(=O)=O)CC3)c2cc1Cl [Example 169, N-(2-(1-(6-chloro-7-methoxyquinazolin-4-yl)piperidin-4-yl)ethyl)sulfamide] | – |
| 100 to 1000 | – | > 1000 | >13.0 | NS(=O)(=O)N1CCC2(CCN(c3ccnc4cc(OC(F)F)ccc34)CC2)C1 [Example 265, 8-(7-(difluoromethoxy)quinolin-4-yl)-2,8-diazaspiro[4.5]decane-2-sulfonamide] | – |
| < 100 | – | 100 to 1000 | 10.5 | COc1cc2nccc(N3CC4CN(S(N)(=O)=O)CC4C3)c2cc1OC (centres unmarked) [Example 202, 5-(6,7-dimethoxyquinolin-4-yl)hexahydropyrrolo[3,4-c]pyrrole-2(1H)-sulfonamide] | – |
| < 100 | – | 100 to 1000 | 34.2 | COc1cc2ncnc(-c3ccc(CNS(N)(=O)=O)c(F)c3)c2cc1OC [Example 301, N-(4-(6,7-dimethoxyquinazolin-4-yl)-2-fluorobenzyl)sulfamide] | – |
| < 100 | – | > 1000 | >49.7 | COc1ccc2c(Oc3ccc(NS(N)(=O)=O)c(C#N)c3)ccnc2c1 [Example 315, N-(2-cyano-4-((7-methoxyquinolin-4-yl)oxy)phenyl)sulfamide] | – |

Reference: patent US20230183239A1, “ECTONUCLEOTIDE PYROPHOSPHATASE-PHOSPHODIESTERASE 1 (ENPP-1) INHIBITORS AND USES THEREOF” (AbbVie Inc., priority 2017, published 2023)
